Measured values from BindingDB's records for doi:10.1021/acs.jmedchem.2c01601 (Sapienza University of Rome, 2023).

What was measured:
[1] = molecular target: METTL3/METTL14 complex (Homo sapiens); assay: Competive inhibition of full length human METTL3/METTL14 expressed in Sf9 cells using single strand RNA 5'-AAGAACCGGACUAAGCU-3' and SAM as substrate incubated for 40 mins by HTRF assay
[2] = molecular target: N6-adenosine-methyltransferase catalytic/non-catalytic subunit (Homo sapiens, UniProt Q9HCE5+Q86U44); assay: Inhibition of full-length His-tagged METTL3/full length FLAG-tagged METTL14 (unknown origin) expressed in baculovirus expression system using synthetic RNA 5'P-uacacucgaucuggacuaaagcugcuc-3' and SAM as substrate preincubated for 10 mins followed by substrate addition and measured after 60 mins by RF/MS analysis
[3] = molecular target: METTL3/METTL14 (Homo sapiens); assay: Inhibition of full-length His-tagged METTL3/full length FLAG-tagged METTL14 (unknown origin) expressed in baculovirus expression system using synthetic RNA 5'P-uacacucgaucuggacuaaagcugcuc-3' and SAM as substrate preincubated for 10 mins followed by substrate addition and measured after 60 mins by RF/MS analysis
METTL3/METTL14 complex = assay: Inhibition of METTL3/METTL14 (unknown origin)

Sequence of N6-adenosine-methyltransferase catalytic/non-catalytic subunit (Q9HCE5 whole entry): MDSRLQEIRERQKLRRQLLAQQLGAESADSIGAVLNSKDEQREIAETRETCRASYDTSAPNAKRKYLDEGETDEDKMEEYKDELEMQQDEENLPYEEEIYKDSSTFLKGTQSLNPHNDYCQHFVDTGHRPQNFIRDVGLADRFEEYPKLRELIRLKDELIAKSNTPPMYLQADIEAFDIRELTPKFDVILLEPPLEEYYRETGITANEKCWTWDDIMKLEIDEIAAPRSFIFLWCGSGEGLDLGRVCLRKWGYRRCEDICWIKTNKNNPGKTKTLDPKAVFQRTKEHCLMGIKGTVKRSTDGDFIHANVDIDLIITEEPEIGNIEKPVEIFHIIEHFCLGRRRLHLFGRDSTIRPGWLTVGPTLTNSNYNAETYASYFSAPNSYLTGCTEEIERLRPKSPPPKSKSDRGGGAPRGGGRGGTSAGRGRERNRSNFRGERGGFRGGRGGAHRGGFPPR
Sequence of N6-adenosine-methyltransferase catalytic/non-catalytic subunit (Q86U44 whole entry): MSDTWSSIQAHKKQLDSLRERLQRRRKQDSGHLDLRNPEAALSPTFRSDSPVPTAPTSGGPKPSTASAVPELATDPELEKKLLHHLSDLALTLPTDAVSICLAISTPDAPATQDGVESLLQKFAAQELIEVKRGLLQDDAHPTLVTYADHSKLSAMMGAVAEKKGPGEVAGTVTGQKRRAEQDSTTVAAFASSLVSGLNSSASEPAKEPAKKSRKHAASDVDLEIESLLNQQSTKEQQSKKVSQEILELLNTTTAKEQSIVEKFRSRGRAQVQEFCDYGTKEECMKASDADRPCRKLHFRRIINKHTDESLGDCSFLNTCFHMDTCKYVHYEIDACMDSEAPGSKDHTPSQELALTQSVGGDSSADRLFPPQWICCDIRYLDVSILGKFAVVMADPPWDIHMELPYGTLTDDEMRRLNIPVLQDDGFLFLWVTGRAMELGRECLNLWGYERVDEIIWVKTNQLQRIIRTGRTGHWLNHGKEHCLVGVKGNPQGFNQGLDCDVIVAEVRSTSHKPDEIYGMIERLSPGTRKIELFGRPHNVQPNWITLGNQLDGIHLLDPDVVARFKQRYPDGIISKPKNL

| Structure (SMILES) | IC50 [2] | IC50 [3] | also measured |
| --- | --- | --- | --- |
| CN1CCC(NC(=O)[C@H]2O[C@@H](n3cnc4c(N)ncnc43)[C@H](O)[C@@H]2O)CC1 |  |  | IC50 [1]: 65 µM |
| CNC1CCC(O)(Cn2cnc3c(N)ncnc32)C(O)C1 (stereo not drawn) |  |  | IC50 [1]: 98 µM |
| CC1(C)CCN(Cc2ccc3nc(Cn4cc(-c5cc(Br)cc6[nH]ncc56)nn4)cn3c2)CC1 | 7.9 nM |  |  |
| COc1cc(-c2cn(Cc3cn4cc(CNCC5(OC)CCC5)ccc4n3)nn2)c2cn[nH]c2c1 | 6.1 nM |  |  |
| COc1ccc2[nH]ncc2c1-c1cn(Cc2cn3cc(CNCC4CCC4)ccc3n2)nn1 | 6.1 nM |  |  |
| O=C(NCc1cn2cc(CNCC34CC(F)(C3)C4)ccc2n1)c1cc(=O)n2ccccc2n1 |  | 6.1 nM |  |
| CC1=NN(c2ccc(C)c(C)c2)C(=O)/C1=N\Nc1cccc(-c2cccc(C(=O)O)c2)c1 |  |  | IC50 (METTL3/METTL14 complex): 15.3 µM |
| Nc1ncnc2c1c(Br)cn2[C@@H]1C[C@H](c2ccc3cc(CN4CCC5(CCC5)C4)[nH]c3c2)[C@@H](O)[C@H]1O [(1R,2S,3R,5R)-3-{4-amino-5-bromo-7H-pyrrolo[2,3-d]pyrimidin-7-yl}-5-[2-({6-azaspiro[3.4]octan-] | 6.1 nM |  |  |
| Nc1ncnc2c1c(Cl)cn2[C@@H]1C[C@H](c2ccc3cc(CNCC45CC(F)(C4)C5)[nH]c3c2)[C@@H](O)[C@H]1O [(1R,2S,3R,5R)-3-{4-amino-5-chloro-7H-pyrrolo[2,3-d]pyrimidin-7-yl}-5-(2-{[({3-fluorobicyclo[1.1.1]pentan-1-] | 6.1 nM |  |  |
| Nc1ncnc2c1ccn2[C@@H]1C[C@H](c2ccc3cc(CN4CCC5(CCC5)C4)[nH]c3c2)[C@@H](O)[C@H]1O [(1R,2S,3R,5R)-3-{4-amino-7H-pyrrolo[2,3-d]pyrimidin-7-yl}-5-[2-({6-azaspiro[3.4]octan-] | 6.2 nM |  |  |
| COc1cc(-c2cn(Cc3cn4cc(CNCC56CC(F)(C5)C6)ccc4n3)nn2)c2cncn2c1 [({3-fluorobicyclo[1.1.1]pentan-1-yl}methyl)({2-[(4-{6-methoxyimidazo[1,5-a]pyridin-8-yl}-1H-1,2,3-triazol-1-yl)methyl]imidazo [1,2-a]pyridin-6-yl}methyl)amine] |  | 6.1 nM |  |
| COc1cc(-c2cn(Cc3cn4cc(CNCC56CC(C5)C6)ccc4n3)nn2)c2cncn2c1 [({bicyclo[1.1.1]pentan-1-yl}methyl)({2-[(4-{6-methoxyimidazo[1,5-a]pyridin-8-yl}-1H-1,2,3-triazol-1-yl)methyl]imidazo [1,2-a]pyridin-6-yl}methyl)amine] |  | 6.1 nM |  |
| COc1cc(-c2cn(Cc3cn4cc(CNCC5CCC5)ccc4n3)nn2)c2cncn2c1 [US20230391770, Example 22] |  | 6.1 nM |  |
